According to the supplement of paper PMC10307832:

Assays:
Assay in all cases: relative viability (nuclei count vs DMSO), 5 days (fraction); higher = more cells survive
XMD14-99 + Luminespib = compound: CN1CCN(CC1)C2=CC(=C(C=C2)NC3=NC(=C(S3)C(=O)C4=C(C=CC=C4Cl)Cl)N)OC [XMD14-99] + CCNC(=O)c1noc(-c2cc(C(C)C)c(O)cc2O)c1-c1ccc(CN2CCOCC2)cc1 [Luminespib] (partner 0.01 µM)
Outline: (§1)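 Lung cancer cell lines, seeded in 1536-well plates, were treated the following day by pin tool with a single drug or with five library-drug doses (not always all listed) in √10 steps on top of a fixed anchor-drug dose. Cells were fixed and nuclei stained in one step after 5 days, and nuclei were counted. Relative viability is the nuclei count for treated wells divided by that for vehicle wells, reported as medians of duplicate plates.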

XMD14-99 + Decitabine = compound: CN1CCN(CC1)C2=CC(=C(C=C2)NC3=NC(=C(S3)C(=O)C4=C(C=CC=C4Cl)Cl)N)OC [XMD14-99] + Nc1ncn([C@H]2C[C@H](O)[C@@H](CO)O2)c(=O)n1 [Decitabine] (partner 2 µM)
Outline: as §1

AZD1208 + Linsitinib = compound: N[C@@H]1CCCN(c2c(/C=C3\SC(=O)NC3=O)cccc2-c2ccccc2)C1 [AZD1208] + C[C@]1(O)C[C@@H](c2nc(-c3ccc4ccc(-c5ccccc5)nc4c3)c3c(N)nccn32)C1 [Linsitinib] (partner 1 µM)
Outline: as §1

XMD14-99 + Phenformin = compound: CN1CCN(CC1)C2=CC(=C(C=C2)NC3=NC(=C(S3)C(=O)C4=C(C=CC=C4Cl)Cl)N)OC [XMD14-99] + N=C(N)NC(=N)NCCc1ccccc1 [Phenformin] (partner 250 µM)
Outline: as §1

Cell Line | relative viability (XMD14-99 + Luminespib; first compound 0.08 µM) | relative viability (XMD14-99 + Luminespib; first compound 0.8 µM) | relative viability (XMD14-99 + Luminespib; first compound 2.53 µM) | relative viability (XMD14-99 + Luminespib; first compound 8 µM) | relative viability (XMD14-99 + Decitabine; first compound 0.08 µM) | relative viability (XMD14-99 + Decitabine; first compound 0.8 µM) | relative viability (XMD14-99 + Decitabine; first compound 2.53 µM) | relative viability (XMD14-99 + Decitabine; first compound 8 µM) | relative viability (AZD1208 + Linsitinib; first compound 0.08 µM) | relative viability (AZD1208 + Linsitinib; first compound 0.253 µM) | relative viability (AZD1208 + Linsitinib; first compound 0.8 µM) | relative viability (AZD1208 + Linsitinib; first compound 2.53 µM) | relative viability (AZD1208 + Linsitinib; first compound 8 µM) | relative viability (XMD14-99 + Phenformin; first compound 0.08 µM) | relative viability (XMD14-99 + Phenformin; first compound 0.8 µM) | relative viability (XMD14-99 + Phenformin; first compound 2.53 µM) | relative viability (XMD14-99 + Phenformin; first compound 8 µM)
PC-3 [JPC-3] | 0.682 | 0.66 | 0.564 | 0.588 | 0.75 | 0.88 | 0.797 | 0.774 | 1.05 | 1.01 | 1.02 | 1.06 | 1 | 0.494 | 0.505 | 0.517 | 0.47
NCI-H1437 | 1.12 | 0.992 | 0.949 | 0.862 | 0.621 | 0.469 | 0.458 | 0.417 | 1.03 | 1.09 | 0.887 | 0.832 | 0.866 | 0.321 | 0.316 | 0.244 | 0.237
NCI-H520 | 0.191 | 0.219 | 0.217 | 0.223 | 0.465 | 0.468 | 0.483 | 0.44 | 0.904 | 1.07 | 0.808 | 0.819 | 0.83 | 0.603 | 0.526 | 0.498 | 0.361
NCI-H1666 | 1.05 | 0.936 | 0.949 | 0.88 | 0.81 | 0.628 | 0.686 | 0.567 | 0.831 | 0.677 | 0.748 | 0.671 | 0.657 | 0.567 | 0.553 | 0.494 | 0.533
NCI-H1651 | 0.939 | 0.647 | 0.63 | 0.644 | 0.683 | 0.546 | 0.601 | 0.509 | 0.912 | 0.619 | 0.758 | 0.852 | 0.83 | 0.321 | 0.319 | 0.301 | 0.272
NCI-H1755 | 0.464 | 0.396 | 0.305 | 0.369 | 0.761 | 0.68 | 0.698 | 0.709 | 0.993 | 0.995 | 0.913 | 0.998 | 0.95 | 0.587 | 0.57 | 0.578 | 0.523
NCI-H727 | 0.383 | 0.305 | 0.203 | 0.352 | 0.881 | 0.805 | 0.857 | 0.599 | 0.29 | 0.219 | 0.264 | 0.259 | 0.225 | 0.423 | 0.43 | 0.419 | 0.374
HARA | 0.311 | 0.685 | 0.581 | 0.207 | 0.565 | 0.505 | 0.537 | 0.403 | 0.948 | 1.02 | 0.899 | 0.964 | 0.877 | 0.438 | 0.486 | 0.346 | 0.324
NCI-H647 | 0.322 | 0.233 | 0.23 | 0.0995 | 0.378 | 0.41 | 0.475 | 0.364 | 1.22 | 1.1 | 1.06 | 1.03 | 1.06 | 0.526 | 0.494 | 0.6 | 0.489
NCI-H2347 | 0.337 | 0.339 | 0.368 | 0.301 | 0.584 | 0.623 | 0.577 | 0.522 | 0.936 | 0.94 | 0.91 | 0.942 | 0.909 | 0.529 | 0.422 | 0.406 | 0.251
LCLC-97TM1 | 0.843 | 0.747 | 0.728 | 0.516 | 0.226 | 0.233 | 0.236 | 0.255 | 0.156 | 0.206 |  | 0.133 | 0.132 | 0.431 | 0.414 | 0.466 | 0.355
EPLC-272H | 0.658 | 0.512 | 0.417 | 0.195 | 0.386 | 0.41 | 0.353 | 0.314 | 1.31 | 1.17 | 0.995 | 1.21 | 1.09 | 0.284 | 0.256 | 0.302 | 0.347
NCI-H1915 | 0.745 | 0.72 | 0.754 | 0.61 | 0.25 | 0.255 | 0.263 | 0.259 | 1.15 | 1.09 | 1.06 | 1.1 | 1.11 | 0.369 | 0.385 | 0.36 | 0.335
NCI-H3122 | 0.0829 | 0.0788 | 0.132 | 0.0985 | 0.405 | 0.359 | 0.333 | 0.283 | 1.09 | 1.03 | 1.03 | 1.02 | 1.08 | 0.372 | 0.361 | 0.291 | 0.237
NCI-H441 | 0.351 | 0.352 | 0.311 | 0.276 | 0.279 | 0.242 | 0.308 | 0.234 | 0.477 | 0.593 | 0.381 | 0.497 | 0.457 | 0.889 | 0.811 | 0.738 | 0.662
NCI-H1395 | 0.733 | 0.685 | 0.699 | 0.555 | 0.696 | 0.7 | 0.712 | 0.653 | 0.989 | 1.15 | 0.979 | 1.07 | 0.881 | 0.471 | 0.458 | 0.404 | 0.438
NCI-H358 | 0.219 | 0.262 | 0.323 | 0.281 | 0.231 | 0.187 | 0.203 | 0.174 | 0.675 | 0.604 | 0.564 | 0.71 | 0.605 | 0.306 | 0.354 | 0.267 | 0.217
PC-14 | 0.156 | 0.151 | 0.156 | 0.171 | 0.26 | 0.238 | 0.201 | 0.142 | 0.942 | 1.12 | 0.977 | 1 | 0.914 | 0.639 | 0.644 | 0.517 | 0.308
